What all share (type): in vivo, mouse
Assay [1] has as its system Plin2+ periventricular glia. In words: Periventricular Plin2+ and TAF-positive cells (lateral ventricle), HFD INK-ATTAC mice. Particulars: AP20187 vs vehicle. As for the experimental part:
(§1) INK-ATTAC mice were injected intraperitoneally (i.p.) with AP20187 (10 mg/kg) or vehicle for 3 days every 2 weeks for a total of 8-10 weeks.
(§2) Paraffin sections were deparaffinized with Histoclear and hydrated in an ethanol gradient followed by water and PBS. Antigen was retrieved by incubation in 0.01M citrate buffer (pH 6.0) at 95° C. for 10 minutes. Slides were placed in blocking buffer (1:60 normal goat serum [S-1000, Vector Laboratories] in 0.1% BSA/PBS) for 60 minutes at room temperature. […] Primary antibodies used (Table 2) were diluted in blocking buffer and applied overnight at 4° C. The next day, slides were washed 3 times with PBS and incubated for 30 minutes with secondary goat, anti-rabbit antibody (1:200; Vector Laboratories #BA-1000) for TAF staining or for 60 minutes with secondary Alexa antibody (Table 1). For TAF staining, Fluorescein-Avidin in PBS (1:500; #A-2011, Vector Lab) was applied to each sample for 20 minutes. Slides were washed 3 times in PBS, which was followed by FISH for TAF detection. […]
(§3) A single, 3 μm-thick section per mouse was used for TAF staining, while for Dcx and Plin2 staining was performed on three 10 μm-thick sections 80 μm-apart. To quantify periventricular lipid accumulation 10-30 images in the periventricular region were taken using the DM5500 widefield fluorescence microscope from Leica with a 10× (for frequency of periventricular glia) or ×40 (for ALISE phenotype of ependymal cells) objective lens. Number of Plin2-positive cells (for frequency of ALISE-positive periventricular glia) or area of Plin2-positive vesicles (for ALISE phenotype of ependymal cells) was assessed using ImageJ software. For identity assessment of Plin2+ cells, 10 μm-thick sections were stained with combination of antibodies for Iba1 (secondary antibody conjugated with Alexa Fluor 488), Plin2 (secondary antibody conjugated with Alexa Fluor 594), and Vimentin (secondary antibody conjugated with Alexa Fluor 647) and quantified for frequency of Plin2+ astrocytes (Iba1−, Vim+) and microglia (Iba1+) in the periventricular region. […]

Assay [2] deals with senescent cells in the amygdala. The assay is described as follows: Telomere associated foci (TAF) in basomedial layer of the amygdala, INK-ATTAC mice. Particulars: HFD INK-ATTAC mice, AP20187 vs vehicle. Here is the method:
as §1, §2, §3

The next assay concerns INK-ATTAC;db/db mice. The assay is described as follows: Open field test, INK-ATTAC;db/db mice treated with AP20187. The following applies: AP20187 vs vehicle, 2 months. As for the experimental part: as §1
Locomotor activity and anxiety-like behavior of mice were assessed in sound-insulated, rectangular activity chambers (Med Associates Inc., St Albans, Vt., USA: W×L×D=27 cm×27 cm×20 cm with continually running fans, infrared lasers, and sensors). Beam breaks were assessed in 2-minute bins over 30 minutes, converted automatically to current mouse location and distance travelled (cm), and recorded on a computer with Med-PC software Version 4.0. Before the test, mice were acclimatized to the room for 1-1.5 hours before being introduced into the chambers. Mice were habituated for 5 minutes in the Open Field chamber (without recording) then placed for another 5 minutes in the home cage. Afterwards, mice were introduced back to the chambers and all mouse movements were recorded for 30 minutes. Anxiety was quantified by the distance mice travelled in the central 25% of the chamber (zone 1) as a function of the total distance mice travelled and by frequencies of entries into zone 1.

In a further assay the test system is brain cell populations. The assay is described as follows: CyTOF of brain cell populations, INK-ATTAC mice. The following applies: AP vs vehicle. Here is the method: as §1
This technique uniquely combines time-of-flight mass spectrometry with metal-labelling technology to enable detection of up to 40 protein targets per cell. A panel of antibodies based on surface markers, transcription factors, and cytokines (see Table 1) was designed for brain mass cytometry/cytometry by time of flight (CyTOF). Each antibody was tagged with a rare metal isotope and its function verified by mass cytometry according to the factory manual (Multi Metal labelling Kits, Fluidigm, CA). A CyTOF-2 mass cytometer (Fluidigm, South San Francisco, Calif.) was used for data acquisition. Acquired data were normalized based on normalization beads (Ce140, Eu151, Eu153, Ho165, and Lu175). A single brain hemisphere was dissociated into a single-cell suspension using brain tissue dissociation kits (Adult Brain Dissociation Kit, Miltenyi Biotec Inc., CA). Collected cells were incubated with metal-conjugated antibodies and, for testing intracellular proteins, including transcription factors and cytokines, fixation and permeabilization was conducted according to the manufacturer's instructions (Transcription Factor Staining Buffer Set, eBioscience, San Diego, Calif.). CyTOF data were analyzed by Cytobank (Santa Clara, Calif.).

Structures are written as SMILES. Entries after “also recorded” stand apart in the source; their conditions may differ.

`CC[C@H](C(=O)N1CCCC[C@H]1C(=O)O[C@H](CCc1ccc(OC)c(OC)c1)c1cccc(OCC(=O)NCC(CNC(=O)COc2cccc([C@@H](CCc3ccc(OC)c(OC)c3)OC(=O)[C@@H]3CCCCN3C(=O)[C@@H](CC)c3cc(OC)c(OC)c(OC)c3)c2)CN(C)C)c1)c1cc(OC)c(OC)c(OC)c1` [AP]: in assay [1], the “Plin2+ cells (cells containing lipid droplets) in the periventricular area” value is listed as “significant reduction” and the “cells bearing senescent markers (NeuN negative, TAF-positive cells) in the periventricular region” value is “significant reduction”. Moreover, the “Plin2+ cells (cells containing lipid droplets) in the periventricular area” value in assay [1] (listed as AP20187) is listed as “reduced lipid droplets”. Further, in assay [2], the “% of NeuN-pos cells with 2 or more TAF (TAF positive neurons), basomedial layer of the amygdala” value is “significant decrease” and the “mean number of TAF in NeuN-pos cells, basomedial layer of the amygdala” value is “significantly reduced”. Further, the “% of NeuN-pos cells with 2 or more TAF (TAF positive neurons), basomedial layer of the amygdala” value in assay [2] (listed as AP20187) was “significantly reduced”. For the same compound, in the assay on INK-ATTAC;db/db mice, the “anxiety-like behavior: distance travelled in the central area, open field” value is “significantly reduced anxiety-like behavior”; the “number of entries into the central area, open field” value was “not significantly increased”; the “total distance travelled (activity), 30 minute open field” value is reported as “not affected; also recorded: did not alter”. Further, the “anxiety-like behavior: distance travelled in the central area, open field” value in the assay on INK-ATTAC;db/db mice (listed as AP20187) was “significant difference”. Further, in the assay with brain cell populations (HFD INK-ATTAC mice), the “ependymal cells (CD133+), CyTOF” value is given as “significantly increased; also recorded: replenish”; the “immature neurons (Dcx+), CyTOF” value is “significantly increased; also recorded: partial recovery”; the “neuronal precursor cells (Nestin+), CyTOF” value is reported as “replenish; also recorded: significantly increased”. Further, in the assay on brain cell populations (INK-ATTAC mice), the “frequency of endothelial cells (CD146+), CyTOF” value was “did not alter”; the “frequency of mature neurons (NeuN+), CyTOF” value was “did not alter”; the “frequency of microglia (CD11b+, CD45-), CyTOF” value is “did not alter”; the “frequency of oligodendrocytes (CNPase+ or OSP+), CyTOF” value is recorded as “did not alter”.
